The values below come from patent publication US9878984B2, “Anti-cancer compounds” (NORTHWESTERN UNIVERSITY, priority 2008, dated 2018).

One data set relates to pBR322 plasmid DNA. Briefly: DNA intercalation assay (topoisomerase I based plasmid DNA unwinding). It is filed as biochemical. Conditions: 10, 31.6, and 100 μM, human topoisomerase I. On the procedure:
DNA Intercalation Assay: A DNA unwinding assay was performed as previously described with minor modifications. Four Units of recombinant wild type human topoisomerase I (Topogen—Port Orange, Fla.) were incubated with reaction buffer (included with enzyme), ˜0.5 μg of pBR322 plasmid DNA, which is a mixture of form I and form II plasmid DNA, and water added to a final volume of 19 μL. The reactions were incubated at 37° C. for 30 min and then 1 μL of each compound was added to give a final concentration of 10, 31.6, and 100 μM (final solvent concentration of 1% DMSO) and the reaction mixture was incubated at 37° C. for another 30 min. The reaction was stopped by the addition of 5 μL gel loading dye. The samples were immediately loaded onto a 1% agarose gel and electrophoresis was performed at 50 V for 3 h at room temperature. Pictures of the gels were obtained using a Kodak Image Station 440 CF (Kodak—Rochester, N.Y.) equipped with a UV source.
This activity depends on the ability of these compounds to intercalate DNA, which is the proposed mechanism of cytotoxic action of amonafide and its analogs. Therefore, the intercalation of plasmid DNA by A1-A9 was compared with the intercalation by amonafide to determine if they behave similarly. A topoisomerase I (topo I) based plasmid DNA unwinding assay was used to determine the intercalation of each compound [1]. […]

The target in data set [1] is T1, wild type recombinant human NAT2 (NAT2*4) (Homo sapiens, UniProt P11245).
T1 construct: made in house; host or cells: E. coli
T1 sequence (P11245 1-290): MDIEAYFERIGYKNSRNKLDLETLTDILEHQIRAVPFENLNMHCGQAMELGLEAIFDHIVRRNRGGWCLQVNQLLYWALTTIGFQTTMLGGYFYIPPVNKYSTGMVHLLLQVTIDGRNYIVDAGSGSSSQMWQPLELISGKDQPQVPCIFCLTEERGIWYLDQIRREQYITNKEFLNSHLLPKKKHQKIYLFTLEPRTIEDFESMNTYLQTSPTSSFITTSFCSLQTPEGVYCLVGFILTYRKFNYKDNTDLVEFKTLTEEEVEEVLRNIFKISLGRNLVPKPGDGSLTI
The data set is described as follows: NAT2 acetylation assay (mass spectrometry). Conditions: 200 μM compound, 100 μg NAT2*4, 400 μM AcetylCoA, 10 min. Type of data set: in vitro ADME. The method, then: NAT2 Assay: This assay was performed using a wild type recombinant human NAT2 (NAT2*4) that was purified from E. coli as previously described. The volume of each reaction was 500 μL with 200 μM amonafide, A1, or A2, 100 μg NAT2*4, and 400 μM AcetylCoA (Sigma-Poole, UK). Reactions were run for 0 or 10 min and stopped by addition of 500 μL of 20% (w/v) trichloroacetic acid (TCA-Sigma-Poole, UK) to give a final TCA concentration of […], which precipitates the enzyme. Two control assays, lacking either enzyme or compound, were performed for each compound. The reaction mixtures were prepared for analysis by isolation of the compounds from the reaction matrix by solid-phase extraction. In brief, 100 μL of the reaction mixture was added to 1 mL of 2% acetic acid. The sorbent of an Oasis HLB 30 mg Extraction Cartridge (Waters Chromatography—Milford, Mass.) was conditioned with 1 mL of methanol and 1 mL of water, the prepared sample was applied to the conditioned sorbent, and the sorbent was washed with 1 mL of 5% methanol. Samples were eluted with 200 μL methanol followed by 800 μL of 0.1% formic acid in methanol. The eluant was analyzed by an API 3000 LC-MS/MS system (Applied Biosystems—Foster City, Calif.). Samples were infused at 5 μL/min directly into the TurboIonSpray Source (Applied Biosystems—Foster City, Calif.), which was operated in the positive ionization mode. […]

Molecules are shown by their SMILES.

Regarding `CN(C)CCN1C(=O)c2cccc3c(N)ccc(c23)C1=O` [A1, 6-amino-2-[2-(dimethylamino)ethyl]-1H-benz[de]isoquinoline-1,3(2H)-dione], in the data set on pBR322 plasmid DNA, the DNA intercalation entry is “intercalated DNA to a lesser extent than amonafide and the other derivatives”. For `CN(C)CCN1C(=O)c2cccc3cc(N)cc(c23)C1=O` [amonafide, reference compound], the “N-acetylation by NAT2 (ratio of acetylated to parent compound)” value in data set [1] was “extensively acetylated”; in data set [1] (listed as Amonafide) it was “underwent extensive acetylation”.
